These results are taken from US20260207585A1, “METHODS AND COMPOSITIONS FOR THE TREATMENT OF PARKINSON'S DISEASE, HUNTINGTON'S DISEASE, AMYOTROPHIC LATERAL SCLEROSIS, AND LEARNING DISORDERS” (Cedars-Sinai Medical Center, priority 2022, published 2026).

Where two headings read alike, the source gives them in different places.

In one experiment the target is ASH1L (Homo sapiens, UniProt Q9NR48). Put plainly: Methyltransferase inhibition panel: ASH1L. It is filed as biochemical. Here is the method:
(§1) The ability of ETP69 to inhibit methyltransferases was tested.

Another experiment concerns the target T1, G9a (Homo sapiens, UniProt Q96KQ7).
T1 sequence (Q96KQ7 1-1210): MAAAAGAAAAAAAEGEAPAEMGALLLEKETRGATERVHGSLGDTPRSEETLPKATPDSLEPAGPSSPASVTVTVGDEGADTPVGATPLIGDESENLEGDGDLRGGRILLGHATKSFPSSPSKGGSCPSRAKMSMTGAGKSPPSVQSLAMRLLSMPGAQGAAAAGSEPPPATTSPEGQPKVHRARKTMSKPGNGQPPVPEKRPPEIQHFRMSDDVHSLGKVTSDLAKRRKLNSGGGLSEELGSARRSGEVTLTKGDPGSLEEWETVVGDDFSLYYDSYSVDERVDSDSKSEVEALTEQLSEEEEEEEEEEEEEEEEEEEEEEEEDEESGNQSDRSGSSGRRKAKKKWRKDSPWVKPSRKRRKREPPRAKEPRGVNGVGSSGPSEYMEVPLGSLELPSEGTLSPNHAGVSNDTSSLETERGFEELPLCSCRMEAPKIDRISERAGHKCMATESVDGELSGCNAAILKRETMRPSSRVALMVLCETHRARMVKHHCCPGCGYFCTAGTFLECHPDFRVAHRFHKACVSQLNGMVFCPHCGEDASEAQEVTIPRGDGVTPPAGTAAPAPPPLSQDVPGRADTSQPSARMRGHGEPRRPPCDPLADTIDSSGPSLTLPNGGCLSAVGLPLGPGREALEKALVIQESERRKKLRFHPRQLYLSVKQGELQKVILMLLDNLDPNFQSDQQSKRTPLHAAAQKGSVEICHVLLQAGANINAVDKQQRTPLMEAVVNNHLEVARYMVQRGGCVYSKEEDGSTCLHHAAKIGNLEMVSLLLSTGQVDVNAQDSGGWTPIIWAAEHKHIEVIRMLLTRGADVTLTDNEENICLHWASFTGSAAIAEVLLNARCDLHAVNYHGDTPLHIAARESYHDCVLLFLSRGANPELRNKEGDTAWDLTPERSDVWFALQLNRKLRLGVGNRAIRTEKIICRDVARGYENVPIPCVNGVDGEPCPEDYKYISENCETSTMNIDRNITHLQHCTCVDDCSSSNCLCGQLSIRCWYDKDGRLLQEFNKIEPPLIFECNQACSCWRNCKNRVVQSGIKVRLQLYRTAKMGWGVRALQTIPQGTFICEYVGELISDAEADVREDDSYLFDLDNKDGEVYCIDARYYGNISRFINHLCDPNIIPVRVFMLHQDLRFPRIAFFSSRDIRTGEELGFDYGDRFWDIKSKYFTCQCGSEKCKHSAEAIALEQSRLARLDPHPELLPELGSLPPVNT
Put plainly: Methyltransferase inhibition panel: G9a. It is filed as biochemical. As for the experimental part:
as §1

In another experiment the target is SET1b Complex (Homo sapiens, UniProt Q9UPS6). Put plainly: Methyltransferase inhibition panel: SET1b Complex. It is filed as biochemical. Here is the method: as §1
Chain of SET1b Complex (Q15291 whole entry): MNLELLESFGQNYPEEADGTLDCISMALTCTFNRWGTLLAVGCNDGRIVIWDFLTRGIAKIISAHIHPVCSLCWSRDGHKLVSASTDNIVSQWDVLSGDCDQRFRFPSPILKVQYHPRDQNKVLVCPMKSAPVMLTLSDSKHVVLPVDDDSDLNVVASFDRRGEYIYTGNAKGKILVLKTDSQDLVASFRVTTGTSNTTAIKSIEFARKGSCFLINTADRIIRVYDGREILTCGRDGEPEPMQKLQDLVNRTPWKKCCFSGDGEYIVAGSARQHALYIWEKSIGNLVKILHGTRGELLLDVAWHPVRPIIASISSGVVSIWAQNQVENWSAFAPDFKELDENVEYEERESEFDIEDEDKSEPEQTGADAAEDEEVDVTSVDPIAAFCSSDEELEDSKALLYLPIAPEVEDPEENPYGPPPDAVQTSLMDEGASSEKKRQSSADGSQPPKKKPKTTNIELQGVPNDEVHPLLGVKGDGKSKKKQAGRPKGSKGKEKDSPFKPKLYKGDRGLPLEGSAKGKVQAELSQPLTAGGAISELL
Chain of SET1b Complex (Q9UBL3 whole entry, further chain): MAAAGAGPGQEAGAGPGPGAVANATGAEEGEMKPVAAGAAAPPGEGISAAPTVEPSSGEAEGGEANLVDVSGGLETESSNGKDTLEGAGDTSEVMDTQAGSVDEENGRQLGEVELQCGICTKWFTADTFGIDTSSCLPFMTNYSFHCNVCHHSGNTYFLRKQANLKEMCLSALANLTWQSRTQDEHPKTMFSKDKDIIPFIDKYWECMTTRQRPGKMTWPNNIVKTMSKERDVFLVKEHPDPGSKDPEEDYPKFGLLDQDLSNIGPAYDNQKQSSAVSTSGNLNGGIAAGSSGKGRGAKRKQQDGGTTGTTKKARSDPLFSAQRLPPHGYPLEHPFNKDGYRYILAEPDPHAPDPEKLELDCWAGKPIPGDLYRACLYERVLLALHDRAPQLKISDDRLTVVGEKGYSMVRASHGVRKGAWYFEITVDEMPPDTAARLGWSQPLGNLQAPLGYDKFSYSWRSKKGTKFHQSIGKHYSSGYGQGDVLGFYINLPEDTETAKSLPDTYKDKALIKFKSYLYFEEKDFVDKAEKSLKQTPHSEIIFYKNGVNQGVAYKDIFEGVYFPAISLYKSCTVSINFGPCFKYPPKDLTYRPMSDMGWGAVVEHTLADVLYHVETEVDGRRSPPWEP
Chain of SET1b Complex (Q9UPS6 whole entry): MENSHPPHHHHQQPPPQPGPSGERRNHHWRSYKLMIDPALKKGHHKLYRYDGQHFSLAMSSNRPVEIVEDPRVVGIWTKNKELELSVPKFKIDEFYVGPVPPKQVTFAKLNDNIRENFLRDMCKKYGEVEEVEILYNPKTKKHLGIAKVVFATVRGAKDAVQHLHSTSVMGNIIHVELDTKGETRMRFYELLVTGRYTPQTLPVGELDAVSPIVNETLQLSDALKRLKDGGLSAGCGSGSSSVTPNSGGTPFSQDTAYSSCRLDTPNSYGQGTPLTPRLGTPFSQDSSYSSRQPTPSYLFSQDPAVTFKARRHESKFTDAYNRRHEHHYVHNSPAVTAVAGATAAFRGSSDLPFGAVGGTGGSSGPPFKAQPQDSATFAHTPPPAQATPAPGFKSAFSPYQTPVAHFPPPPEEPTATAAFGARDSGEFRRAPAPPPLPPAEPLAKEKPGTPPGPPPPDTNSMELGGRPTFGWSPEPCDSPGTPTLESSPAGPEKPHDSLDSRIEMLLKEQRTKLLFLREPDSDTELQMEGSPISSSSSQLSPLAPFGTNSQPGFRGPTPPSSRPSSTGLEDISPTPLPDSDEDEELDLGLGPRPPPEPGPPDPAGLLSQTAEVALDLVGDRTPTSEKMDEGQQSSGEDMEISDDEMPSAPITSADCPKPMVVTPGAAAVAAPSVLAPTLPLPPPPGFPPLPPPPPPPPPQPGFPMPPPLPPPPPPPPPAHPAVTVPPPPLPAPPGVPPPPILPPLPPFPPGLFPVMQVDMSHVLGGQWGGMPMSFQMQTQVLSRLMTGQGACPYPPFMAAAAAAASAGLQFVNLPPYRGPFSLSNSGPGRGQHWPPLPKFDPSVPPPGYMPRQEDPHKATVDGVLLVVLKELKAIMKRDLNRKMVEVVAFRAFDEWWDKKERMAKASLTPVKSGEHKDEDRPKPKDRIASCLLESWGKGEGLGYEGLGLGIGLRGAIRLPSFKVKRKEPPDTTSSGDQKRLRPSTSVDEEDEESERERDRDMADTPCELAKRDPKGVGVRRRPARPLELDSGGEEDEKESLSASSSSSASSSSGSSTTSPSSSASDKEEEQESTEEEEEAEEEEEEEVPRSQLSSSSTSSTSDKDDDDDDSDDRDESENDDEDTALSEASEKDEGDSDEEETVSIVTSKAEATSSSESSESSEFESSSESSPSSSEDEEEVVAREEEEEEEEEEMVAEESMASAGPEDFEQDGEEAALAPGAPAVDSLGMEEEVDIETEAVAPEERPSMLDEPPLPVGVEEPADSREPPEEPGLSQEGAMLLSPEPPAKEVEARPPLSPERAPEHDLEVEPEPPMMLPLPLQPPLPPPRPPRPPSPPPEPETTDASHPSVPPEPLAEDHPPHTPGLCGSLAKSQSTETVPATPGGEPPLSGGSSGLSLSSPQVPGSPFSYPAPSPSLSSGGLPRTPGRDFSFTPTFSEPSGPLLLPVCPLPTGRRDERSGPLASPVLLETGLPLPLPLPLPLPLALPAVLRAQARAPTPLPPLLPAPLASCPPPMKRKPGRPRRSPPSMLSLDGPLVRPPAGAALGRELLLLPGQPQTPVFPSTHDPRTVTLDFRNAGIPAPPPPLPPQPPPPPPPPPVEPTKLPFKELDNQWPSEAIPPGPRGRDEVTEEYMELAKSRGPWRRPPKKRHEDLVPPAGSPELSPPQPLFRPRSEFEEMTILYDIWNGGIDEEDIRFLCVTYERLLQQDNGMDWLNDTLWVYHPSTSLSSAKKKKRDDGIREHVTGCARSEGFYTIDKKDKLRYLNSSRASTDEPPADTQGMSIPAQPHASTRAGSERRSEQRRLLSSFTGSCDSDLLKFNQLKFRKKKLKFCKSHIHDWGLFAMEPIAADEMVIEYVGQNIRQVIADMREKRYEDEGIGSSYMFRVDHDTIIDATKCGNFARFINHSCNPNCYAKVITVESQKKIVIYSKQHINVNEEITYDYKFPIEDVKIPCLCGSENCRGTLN
Chain of SET1b Complex (Q9C005 whole entry, further chain): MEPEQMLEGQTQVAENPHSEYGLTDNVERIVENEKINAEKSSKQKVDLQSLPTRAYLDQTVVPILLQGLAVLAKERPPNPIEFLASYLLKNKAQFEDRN
The next experiment concerns H3K9me3. Put plainly: H3K9me3 staining in cingulate/cerebral cortex and hippocampus. It is filed as in vivo, mice. Further details: reduction of H3K9me3 IR area / reduction of hippocampal H3K9me3 levels: concentration or dose not given beside the values. As to conditions: for reduction of hippocampal H3K9me3 levels: 15 days after injection; for decrease in neuronal H3K9me3 irradiance: cingulate cortex; for reduction of H3K9me3 IR area: cortex. As for the experimental part:
The experimental protocol is depicted in FIG. 2A. Mice were treated with ETP69 or DMSO. After 2 days, they were tested on the color X-maze. At day 12, they were tested on the Barnes maze. On day 14, they were tested for fear conditioning. Brain tissue was isolated as depicted for analysis of H3K9me3 staining on days 4 and 15, as depicted in FIG. 2B-2D. Levels of H3K9me3 correlated with the percent of alterations at day 4 as depicted in FIG. 2E. At day 15, H3K9me3 was decreased in mice treated with ETP69 as compared to mice treated with DMSO. Levels of H3K9me3 was decreased in both the cingulate cortex and the hippocampus at 4 and 15 days (FIGS. 2J-2M).
(§2) The effects of single and repeated ETP69 injections in mice were tested. The experimental timeline is depicted in FIG. 5. Three parallel injection conditions were tested: a single ETP69 condition, a boosted ETP69 injection, and repeated ETP69 injections. The single injection mice received one injection of ETP69 or DMSO at Day 0. The mice that received a boosted injection received one injection of ETP69 or DMSO at day 0 and one injection at day 9. The mice that received repeated injections received 11 injections of ETP69 or DMSO at day 0 or day 9. Both wildtype and AD model (APP/PS1-transgenic) mice were tested.
AD+ brains were stained for neuronal H3K9me3 and DAPI. Representative images of the cingulate cortex and hippocampus of DMSO and ETP69 treated mice are depicted in FIGS. 8A and 8C, respectively. Neuronal H3K9me3 irradiance in the cingulate cortex is quantified in FIG. 8B. […] H3K9me3 staining in the DG correlated with performance in the Barnes Test, while K3K9me3 staining in the hippocampus was correlated with performance in the fear conditioning test.
The effects of ETP69 on cerebral H3K9me3 levels was tested in old mice, in both a neurodegenerative model and WT siblings. The levels of brain H3K9me3 at days 4 (short-term) and 15 (long-term) following i.p. ETP69 injection (S regimen cohorts) were measured. […] These findings indicate that a single dose of ETP69 is sufficient to sustainably reduce H3K9me3 in the brains of old WT and neurodegenerative mice. Consistent with the observations in 18-month-old mice, ETP69 mitigated neuroinflammation, including by reduced ionized calcium-binding adaptor molecule 1 (Iba-1)^+ microgliosis in neurodegenerative mice (40%, p=0.0021; FIG. 16D).

In the next experiment the test system is AD+ mice. Put plainly: Open Field Barnes Maze test. It is filed as in vivo. As to conditions: AD+ mice vs AD+ mice treated with DMSO. Here is the method:
as §2
The results of the Open Field Barnes Maze test indicate hippocampal-based spatial memory. FIG. 7A depicts a schematic of the Barnes Maze Test. […] The results of the fear conditioning test indicate spatial memory.

Where [1] appears, read: NT1721 20 μM, substrate Nucleosomes 0.05 mg/mL.
[2] abbreviates: read-out: Enzyme % Activity (relative to DMSO controls) Data 1.
The mark [3] stands for this setting: read-out: Enzyme % Activity (relative to DMSO controls) Data 2.

`CN1C(=O)[C@@]23C[C@](C)(C#N)[C@H](c4ccc5c(c4)OCO5)N2C(=O)[C@]1(C)SS3` (racemic) [ETP69, Rac-(3S,6S,7S,8aS)-6-(benzo[d][1,3]dioxol-5-yl)-2,3,7-trimethyl-1,4-dioxohexahydro-6H-3,8a-epidithiopyrrolo[1,2-a]pyrazine-7-carbonitrile]: the “Enzyme % Activity (relative to DMSO controls) Data 1” value on ASH1L (setting [1]) was found to be 3.42%. For the same compound, the “Enzyme % Activity (relative to DMSO controls) Data 2” value at ASH1L (setting [1]) is recorded as 4.17%. Further, the “inhibition relative to DMSO controls” value at ASH1L (summary of Table 1), at G9a (summary of Table 1) and at SET1b Complex (summary of Table 1) was “at least 7500” each time. Besides, the remaining activity at 2.5 µM at G9a (setting [2]) stood at 40.9%; on G9a (setting [3]), 38.7%. In addition, the remaining activity at 20 µM at SET1b Complex (setting [2]) is 0.6%; at SET1b Complex (setting [3]), 0.47%. The “reduction of hippocampal H3K9me3 levels” value with H3K9me3 (CA, WT mice) came out at 36%; with H3K9me3 (CA, neurodegenerative mice) it was 54%; in the experiment on H3K9me3 (DG, neurodegenerative mice) it was 42%. Besides, the “Levels of H3K9me3” value in the experiment with H3K9me3 (cingulate cortex and hippocampus, 4 and 15 days) is listed as “decreased”. Also, the “decrease in neuronal H3K9me3 irradiance” value was found to be 40% in the experiment on H3K9me3 (AD+ mice, day 4); 40% in the experiment with H3K9me3 (AD+ mice, day 14); 27% in the experiment on H3K9me3 (wildtype mice, day 4). In addition, the “reduction of H3K9me3 IR area” value in the experiment with H3K9me3 (WT old mice, 4 days after single i.p. injection) was found to be 27%; in the experiment with H3K9me3 (neurodegenerative mice, after 15 days), 40%; in the experiment with H3K9me3 (neurodegenerative old mice, 4 days after single i.p. injection) it was 40%. Moreover, the H3K9me3 entry in the experiment with H3K9me3 (day 15, vs mice treated with DMSO) was “decreased”. For the same compound, the “decrease in H3K9me3 irradiance” value in the experiment on H3K9me3 (hippocampus, AD+ mice, vs AD+ mice administered DMSO) came to 47%. Moreover, the “H3K9 expression (H3K9me3 repression mark), cell-specific” value in the experiment on H3K9me3 (neurons, astrocytes, and microglia macrophages, AD+ mice) is “reduced”. Moreover, in the experiment with AD+ mice, the memory retention result is reported as “improvement”.
